Source: ChEMBL document CHEMBL3046462, “Synthesis and anti-bacterial activities of some novel pyrazolobenzothiazine-based chalcones and their pyrimidine derivatives” (2012)

What was measured:
Format in all cases: functional
[1] = test system: Escherichia coli; experiment: Antibacterial activity against Escherichia coli X580 at 2 mg/ml after overnight incubation by hole plate method; conditions: read-out: DIZ
[2] = test system: Escherichia coli; experiment: Antibacterial activity against Escherichia coli X580 at 2 mg/ml after overnight incubation by hole plate method relative to cephalosporin C
[3] = test system: Staphylococcus aureus; experiment: Antibacterial activity against Staphylococcus aureus NCTC 6571 at 2 mg/ml after overnight incubation by hole plate method relative to cephalosporin C
[4] = test system: Staphylococcus aureus; experiment: Antibacterial activity against Staphylococcus aureus NCTC 6571 at 2 mg/ml after overnight incubation by hole plate method; conditions: read-out: DIZ

COc1ccc(-c2cc(-c3ccc(-n4nc5c(c4C)N(C)S(=O)(=O)c4ccccc4-5)cc3)nc(N)n2)cc1OC
zone of inhibition at 2000 µg/mL [1]: 14 mm
fold change (FC) [2]: 4.13

COc1ccc(-c2cc(-c3ccc(-n4nc5c(c4C)N(C)S(=O)(=O)c4ccccc4-5)cc3)nc(N)n2)c(OC)c1OC
zone of inhibition at 2000 µg/mL [1]: 24 mm
fold change (FC) [2]: 19.06

COc1cc(-c2cc(-c3ccc(-n4nc5c(c4C)N(C)S(=O)(=O)c4ccccc4-5)cc3)nc(N)n2)cc(OC)c1OC
zone of inhibition at 2000 µg/mL [1]: 13 mm
fold change (FC) [2]: 3.55

Cc1c2c(nn1-c1ccc(-c3cc(-c4ccc([N+](=O)[O-])cc4)nc(N)n3)cc1)-c1ccccc1S(=O)(=O)N2C
zone of inhibition at 2000 µg/mL [1]: 14 mm
fold change (FC) [2]: 4.13

Cc1c2c(nn1-c1ccc(-c3cc(-c4ccccc4)nc(N)n3)cc1)-c1ccccc1S(=O)(=O)N2C
zone of inhibition at 2000 µg/mL [1]: 14 mm
fold change (FC) [2]: 4.13

Cc1ccc(-c2cc(-c3ccc(-n4nc5c(c4C)N(C)S(=O)(=O)c4ccccc4-5)cc3)nc(N)n2)cc1
zone of inhibition at 2000 µg/mL [1]: 14 mm
fold change (FC) [2]: 4.13

Cc1cc(C)c(-c2cc(-c3ccc(-n4nc5c(c4C)N(C)S(=O)(=O)c4ccccc4-5)cc3)nc(N)n2)c(C)c1
zone of inhibition at 2000 µg/mL [1]: 15 mm
fold change (FC) [2]: 4.81

Cc1ccc(C(=O)/C=C/c2ccc(-n3nc4c(c3C)N(C)S(=O)(=O)c3ccccc3-4)cc2)cc1
zone of inhibition at 2000 µg/mL [1]: 13 mm
fold change (FC) [2]: 3.55

Cc1cc(C)c(C(=O)/C=C/c2ccc(-n3nc4c(c3C)N(C)S(=O)(=O)c3ccccc3-4)cc2)c(C)c1
zone of inhibition at 2000 µg/mL [1]: 15 mm
fold change (FC) [2]: 4.81

Cc1c2c(nn1-c1ccc(-c3cc(-c4ccc(F)cc4)nc(N)n3)cc1)-c1ccccc1S(=O)(=O)N2C
zone of inhibition at 2000 µg/mL [1]: 15 mm
fold change (FC) [2]: 4.81

Cc1c2c(nn1-c1ccc(-c3cc(-c4ccc(Cl)cc4)nc(N)n3)cc1)-c1ccccc1S(=O)(=O)N2C
zone of inhibition at 2000 µg/mL [1]: 16 mm
fold change (FC) [2]: 5.61

Cc1c2c(nn1-c1ccc(-c3cc(-c4cccc(Cl)c4)nc(N)n3)cc1)-c1ccccc1S(=O)(=O)N2C
zone of inhibition at 2000 µg/mL [1]: 16 mm
fold change (FC) [2]: 5.61

Cc1c2c(nn1-c1ccc(-c3cc(-c4ccc(Br)cc4)nc(N)n3)cc1)-c1ccccc1S(=O)(=O)N2C
fold change (FC) [3]: 508
zone of inhibition at 2000 µg/mL [4]: 17 mm
zone of inhibition at 2000 µg/mL [1]: 19 mm
fold change (FC) [2]: 8.87

Cc1c2c(nn1-c1ccc(-c3cc(-c4cccc(Br)c4)nc(N)n3)cc1)-c1ccccc1S(=O)(=O)N2C
zone of inhibition at 2000 µg/mL [1]: 14 mm
fold change (FC) [2]: 4.13

COc1ccccc1-c1cc(-c2ccc(-n3nc4c(c3C)N(C)S(=O)(=O)c3ccccc3-4)cc2)nc(N)n1
fold change (FC) [3]: 1390
zone of inhibition at 2000 µg/mL [4]: 22 mm
zone of inhibition at 2000 µg/mL [1]: 20 mm
fold change (FC) [2]: 10.34

Cc1c2c(nn1-c1ccc(C(=O)/C=C/c3ccc(F)cc3)cc1)-c1ccccc1S(=O)(=O)N2C
zone of inhibition at 2000 µg/mL [1]: 14 mm
fold change (FC) [2]: 4.13

Cc1c2c(nn1-c1ccc(C(=O)/C=C/c3ccc(Cl)cc3)cc1)-c1ccccc1S(=O)(=O)N2C
zone of inhibition at 2000 µg/mL [1]: 13 mm
fold change (FC) [2]: 3.55

Cc1c2c(nn1-c1ccc(C(=O)/C=C/c3cccc(Cl)c3)cc1)-c1ccccc1S(=O)(=O)N2C
zone of inhibition at 2000 µg/mL [1]: 15 mm
fold change (FC) [2]: 4.81

Cc1c2c(nn1-c1ccc(C(=O)/C=C/c3ccc(Cl)cc3Cl)cc1)-c1ccccc1S(=O)(=O)N2C
zone of inhibition at 2000 µg/mL [1]: 16 mm
fold change (FC) [2]: 5.61

Cc1c2c(nn1-c1ccc(C(=O)/C=C/c3ccc(Br)cc3)cc1)-c1ccccc1S(=O)(=O)N2C
zone of inhibition at 2000 µg/mL [1]: 15 mm
fold change (FC) [2]: 4.81

Cc1c2c(nn1-c1ccc(C(=O)/C=C/c3cccc(Br)c3)cc1)-c1ccccc1S(=O)(=O)N2C
zone of inhibition at 2000 µg/mL [1]: 17 mm
fold change (FC) [2]: 6.53

COc1ccccc1/C=C/C(=O)c1ccc(-n2nc3c(c2C)N(C)S(=O)(=O)c2ccccc2-3)cc1
zone of inhibition at 2000 µg/mL [1]: 16 mm
fold change (FC) [2]: 5.61

COc1ccc(/C=C/C(=O)c2ccc(-n3nc4c(c3C)N(C)S(=O)(=O)c3ccccc3-4)cc2)cc1OC
zone of inhibition at 2000 µg/mL [1]: 15 mm
fold change (FC) [2]: 4.81

COc1ccc(/C=C/C(=O)c2ccc(-n3nc4c(c3C)N(C)S(=O)(=O)c3ccccc3-4)cc2)c(OC)c1OC
zone of inhibition at 2000 µg/mL [1]: 14 mm
fold change (FC) [2]: 4.13

Cc1c2c(nn1-c1ccc(C(=O)/C=C/c3ccc([N+](=O)[O-])cc3)cc1)-c1ccccc1S(=O)(=O)N2C
zone of inhibition at 2000 µg/mL [1]: 15 mm
fold change (FC) [2]: 4.81

Cc1c2c(nn1-c1ccc(/C=C/C(=O)c3ccc(Cl)cc3)cc1)-c1ccccc1S(=O)(=O)N2C
zone of inhibition at 2000 µg/mL [1]: 14 mm
fold change (FC) [2]: 4.13

Cc1c2c(nn1-c1ccc(/C=C/C(=O)c3ccc(Br)cc3)cc1)-c1ccccc1S(=O)(=O)N2C
zone of inhibition at 2000 µg/mL [1]: 16 mm
fold change (FC) [2]: 5.61

COc1ccc(C(=O)/C=C/c2ccc(-n3nc4c(c3C)N(C)S(=O)(=O)c3ccccc3-4)cc2)cc1
zone of inhibition at 2000 µg/mL [1]: 15 mm
fold change (FC) [2]: 4.81
